{"source": "PubChem BioAssay AID1645848", "data": [{"details": "buffer; pH 7.4; 6.0 h; 150.0 µM", "units": {"solubility kinetic": "µg/mL"}, "values": [{"smiles": "Cc1cc(C)c(C(=O)Nc2cccc([S+](=O)([O-])N3CCCCC3)c2)[nH]1", "solubility kinetic": "< 1"}, {"smiles": "CCOc1ccc(CCNC(=O)c2cc3sccc3n2C)cc1OCC", "solubility kinetic": 8.05}, {"smiles": "CCOc1ccc(N2CC(c3nc(-c4ccccn4)no3)CC2=O)cc1", "note": "(configuration not stated)", "solubility kinetic": "> 35"}, {"smiles": "CCOC(=O)C1CCN(c2ncnc3c2c(-c2ccccc2)cn3-c2ccccc2)CC1", "solubility kinetic": "< 1"}, {"smiles": "COC(=O)c1cc(Cl)ccc1NC(=O)CSc1ncc(S(=O)(=O)c2ccc(Br)cc2)c(=O)[nH]1", "solubility kinetic": 59.1}, {"smiles": "NC(=O)C1CCN(c2nc(-c3ccccc3-c3ccccc3)cs2)CC1", "solubility kinetic": 30.6}, {"smiles": "CC1=Nc2cc(C(=O)NC3CCCC3)ccc2Sc2ccc(C)cc21", "solubility kinetic": 1.05}, {"smiles": "Cc1ccc(CSCc2ccc(C(=O)NC3CC3)o2)cc1", "solubility kinetic": "> 44"}, {"smiles": "Cn1cnc2c(F)c(Nc3ccc(Br)cc3Cl)c(C(=O)NOCCO)cc21", "solubility kinetic": "> 45"}, {"smiles": "c1cc(-c2cc(-c3ccncc3)c3cncn3c2)c2cc[nH]c2c1", "solubility kinetic": "< 1"}, {"smiles": "O=C1CCCC2=C1C(c1ccncc1Cl)N=C(Nc1nc3ccccc3o1)N2", "note": "(configuration not stated)", "solubility kinetic": 8.82}, {"smiles": "CC[C@@]1(O)C(=O)OCc2c1cc1n(c2=O)Cc2c-1nc1cc(F)c(C)c3c1c2[C@@H](N)CC3", "solubility kinetic": 31.9}, {"smiles": "O=C(Cc1n[nH]c(=O)c2ccccc12)NC1CCCc2c1[nH]c1c(Cl)cccc21", "note": "(configuration not stated)", "solubility kinetic": "< 1"}, {"smiles": "O=c1c(O)c(-c2ccc(O)cc2)oc2cc(O)cc(O)c12", "solubility kinetic": 1.35}, {"smiles": "COc1ccc(NS(=O)(=O)c2ccc(C)c(C(=O)Nc3ccc4oc(C)nc4c3)c2)cc1", "solubility kinetic": 8.77}, {"smiles": "Cc1ccc(OCCn2c(CCNC(=O)C3CCCCC3)nc3ccccc32)cc1", "solubility kinetic": "< 1"}, {"smiles": "CC(=O)N1CCc2c(sc3c2c(=O)n(-c2ccccc2)c(=O)n3Cc2cccc(C(F)(F)F)c2)C1", "solubility kinetic": 10}, {"smiles": "COC12C(COC(N)=O)C3=C(C(=O)C(C)=C(N)C3=O)N1CC1C2N1C", "note": "(configuration not stated)", "solubility kinetic": "> 51"}, {"smiles": "CNc1oc(-c2ccc(-c3ccccc3)cc2)nc1C#N", "solubility kinetic": "< 1"}, {"smiles": "Nc1cc2nc3ccccc3oc-2cc1=O", "solubility kinetic": 17.9}, {"smiles": "Cc1csc2c1c(=O)n(O)c(=O)n2Cc1ccccc1", "solubility kinetic": "> 43"}, {"smiles": "CCN(C(=O)C(NS(=O)(=O)c1ccc(Br)s1)c1ccccc1)c1ccc(C)c(C)c1", "note": "(configuration not stated)", "solubility kinetic": "< 1"}, {"smiles": "CCN1CCN(CCCOc2ccc(-c3ccccc3)cc2)CC1", "solubility kinetic": "> 48"}, {"smiles": "O=C(c1csnn1)N1CCC2(CCCN(C(c3ccccc3)c3ccccc3)C2)CC1", "solubility kinetic": "< 1"}, {"smiles": "Cc1ccc(-c2cc(C(=O)NCc3cnn(C)c3)c3cc(Br)ccc3n2)cc1", "solubility kinetic": "< 1"}, {"smiles": "CCCN1C(CC(C)C)=NS(=O)(=O)c2cc(NC(=O)c3ccco3)ccc21", "solubility kinetic": "< 1"}, {"smiles": "CC(=O)c1c(C)[nH]c(C(=O)Nc2ccc(Cl)cc2)c1C", "solubility kinetic": 1.96}, {"smiles": "Cc1cc2c(-c3cccc(O)c3)nc(-c3c(C)noc3C)cc2[nH]1", "solubility kinetic": "< 1"}, {"smiles": "CC1=C(C(=O)Nc2ccccc2)C(c2ccc[nH]2)n2ncnc2N1", "note": "(configuration not stated)", "solubility kinetic": 9.06}, {"smiles": "CCOc1cc(F)c(CCNC(=O)c2cc3sccc3n2Cc2ccccc2)cc1OCC", "solubility kinetic": "< 1"}, {"smiles": "c1ccc2c(Nc3nccs3)nc(-c3ccncc3)nc2c1", "solubility kinetic": "< 1"}, {"smiles": "O=C(Nc1nnc(-c2ccc(Cl)cc2)o1)c1ccc(Cl)c(Cl)c1", "solubility kinetic": "< 1"}, {"smiles": "CC(=O)c1ccc(N2CCN(S(=O)(=O)c3ccc4c(c3)CC(=O)N4)CC2)cc1", "solubility kinetic": 2.85}, {"smiles": "O=C(C1CCN(c2nc(-c3ccc(Br)cc3)cs2)CC1)N1CCNCC1", "solubility kinetic": "> 64"}, {"smiles": "O=C1Nc2ccccc2/C1=C\\c1ccc(O)cc1", "solubility kinetic": 0.999}, {"smiles": "Cc1[nH]c2ccccc2c1CN1CCN(c2ccccn2)CC1", "solubility kinetic": 34.4}, {"smiles": "Cc1nc2sccn2c(=O)c1S(=O)(=O)Nc1ccc(N2CCN(C)CC2)cc1", "solubility kinetic": "> 62"}, {"smiles": "CN(C)C(=O)c1cc(-c2ccc(S(C)(=O)=O)cc2)c2cnn(C)c2n1", "solubility kinetic": "> 53"}, {"smiles": "O=C1c2ccccc2C2=Nc3ccccc3SC(c3ccc(Cl)cc3)C12", "note": "(configuration not stated)", "solubility kinetic": "< 1"}, {"smiles": "COc1ccc(-n2nc(C3CCCN(C(=O)c4ccccc4F)C3)[nH]c2=O)cc1", "note": "(configuration not stated)", "solubility kinetic": 37.3}, {"smiles": "N#Cc1ccccc1S(=O)(=O)Nc1cnccc1C(=O)Nc1nc(-c2ccccc2)cs1", "solubility kinetic": 50.9}, {"smiles": "O=C(Nc1nc(-c2ccccc2)cs1)c1ccncc1NS(=O)(=O)c1ccc(F)cc1Cl", "solubility kinetic": "< 1"}, {"smiles": "CCOc1ccc(CCNC(=O)c2ccc(C3(C(F)(F)F)N=N3)cc2)cc1OCC", "solubility kinetic": "< 1"}, {"smiles": "Cc1ccc(NC(=O)c2c(N3CCCC3=O)c3cc(C)ccc3n2C)c(C)c1", "solubility kinetic": "< 1"}, {"smiles": "O=C(c1cnc(N2CCCCC2)c2ccccc12)N1CCN(c2ccc(Cl)cc2)CC1", "solubility kinetic": "< 1"}, {"smiles": "Cc1noc(/C=C/c2ccccc2F)c1S(=O)(=O)N1CCC(C(=O)Nc2ccc(C#N)cc2)CC1", "solubility kinetic": "< 1"}, {"smiles": "COc1ccc(-c2nc(N3CCOCC3)c3sc(CN(C)c4ncc(C(=O)NO)cn4)cc3n2)cn1", "solubility kinetic": 5.56}, {"smiles": "O=[S+]([O-])(Nc1cccc2ccccc12)c1ccc(NCc2ccc(Cl)cc2O)cc1", "solubility kinetic": "< 1"}, {"smiles": "COc1ccc(/C=C2/C(=O)Nc3ccccc32)cc1O", "solubility kinetic": 29.2}, {"smiles": "[2H]C([2H])(Nc1nc(-c2ccccc2C([2H])(C([2H])([2H])[2H])C([2H])([2H])[2H])ncc1C)c1ccc(-n2ccnn2)cc1", "solubility kinetic": 13.5}, {"smiles": "CC(C)CNc1ccnc(NCc2csc(-c3ccccc3)n2)n1", "solubility kinetic": 35.9}, {"smiles": "O=C1C2=C(Nc3ccccc3SC2c2ccco2)c2ccccc21", "note": "(configuration not stated)", "solubility kinetic": "< 1"}, {"smiles": "COc1ccc(CN2C(=O)[C@@H]3C[C@@H](CN3Cc3cccs3)Oc3ccccc32)cc1", "solubility kinetic": 2.52}, {"smiles": "Brc1ccc(-c2csc(N3CCCCC3)n2)cc1", "solubility kinetic": "< 1"}, {"smiles": "COc1ccc(Cn2c(C(=O)O)c(CNCc3cccc(OC)c3)c3ccc(C)cc32)cc1", "solubility kinetic": 6.85}, {"smiles": "COc1ccccc1-n1cnc2cc(C(=O)N3CCCCC3)ccc21", "solubility kinetic": "> 50"}, {"smiles": "O=C1CCCC2=C1C(c1[nH]ncc1Cl)N=C(Nc1nc3ccc(F)cc3o1)N2", "note": "(configuration not stated)", "solubility kinetic": 1.53}, {"smiles": "COCCNCc1ccc(-c2cc3nccc(Oc4ccc(NC(=S)NC(=O)Cc5ccc(F)cc5)cc4F)c3s2)nc1", "solubility kinetic": "< 1"}, {"smiles": "CN(C)c1cccc(-c2cnc(N3CCC(C(N)=O)CC3)nc2)c1", "solubility kinetic": 34.9}, {"smiles": "COc1ccc(-n2nc(C3CCCN(C(=O)Nc4ccccc4)C3)[nH]c2=O)cc1", "note": "(configuration not stated)", "solubility kinetic": 34.9}, {"smiles": "Fc1ccc(Nc2nc(-c3ccncc3)nc3ccccc23)cc1F", "solubility kinetic": "< 1"}, {"smiles": "O=C1Nc2cc(Cl)ccc2/C1=C\\c1cc(Cl)c(O)c(Cl)c1", "solubility kinetic": 5.95}, {"smiles": "Cc1noc(C)c1[S+](=O)([O-])N1CCC2(CC1)CC(c1cccc(C(F)(F)F)c1)=NO2", "solubility kinetic": "< 1"}, {"smiles": "COc1ccc(NC2=C(c3ccc(C(F)(F)F)cc3)C(=O)c3ccccc32)cc1", "solubility kinetic": 1.04}, {"smiles": "Clc1ccccc1Nc1nc(-c2ccncc2)nc2ccccc12", "solubility kinetic": "< 1"}, {"smiles": "C/C(=N\\NC(N)=S)C1=CCC2C3CC[C@H]4CC(O)CC[C@]4(C)C3CC[C@]12C", "note": "(some centres not stated)", "solubility kinetic": "< 1"}, {"smiles": "CS(=O)(=O)CCNCc1ccc(-c2ccc3ncnc(Nc4ccc(OCc5cccc(F)c5)c(Cl)c4)c3c2)o1", "solubility kinetic": "< 1"}, {"smiles": "CN1CCN(c2cc(-c3nc(Nc4ccc(F)c(F)c4)c4ccccc4n3)ccn2)CC1", "solubility kinetic": "< 1"}, {"smiles": "Cc1ccc(C(=O)N2CCc3sc(C(=O)NC(C)c4ccccc4)cc3C2)cc1", "note": "(configuration not stated)", "solubility kinetic": 2.09}, {"smiles": "C[C@H]1CN(C(=O)Nc2ccc(F)cc2)C[C@@H]1c1nc(-c2ccccc2)no1", "solubility kinetic": 4.11}, {"smiles": "O=C1c2ccccc2-n2c1nc1ccccc1c2=O", "solubility kinetic": 8.45}, {"smiles": "Cc1cc(NS(=O)(=O)c2ccc(N(C)C(=O)Cc3ccc(Cl)c(Cl)c3)cc2)no1", "solubility kinetic": "> 67"}]}]}
